Laboratory results reported in PMC10300102, “In vivo inhibition of nuclear ACE2 translocation protects against SARS-CoV-2 replication and lung damage through epigenetic imprinting” (Nature Communications, 2023).
Where a SMILES comes first, the peptide text is derived from it. The star is where a group is joined. Myristoyl = CCCCCCCCCCCCCC(=O)*

System: SARS-CoV-2 ORF1ab and host gene expression
Details: hamster, in vivo

CCCCCCCCCCCCCC(=O)N[C@H](C(=O)NCC(=O)N[C@H](C(=O)N[C@@H](CCCNC(=N)N)C(=O)N[C@@H](CC(=O)O)C(=O)N[C@@H](CCCNC(=N)N)C(=O)N[C@@H](CCCCN)C(=O)N[C@@H](CCCCN)C(=O)N[C@@H](CCCCN)C(=O)N[C@@H](CC(N)=O)C(=O)N[C@@H](CCCCN)C(=O)N[C@@H](C)C(=O)N[C@@H](CCCNC(=N)N)C(=O)N[C@@H](CO)C(=O)O)[C@@H](C)CC)[C@@H](C)O [NACE2i] (Myristoyl-TGIRDRKKKNKARS-OH)
FC gene Cyp4v3: 0.2095 | FC gene ORF1ab: -2.2037 | FC gene S: -2.258 | FC, gene 2410004B18Rik: 0.5678 | FC, gene 4932438A13Rik: 0.5459 | FC, gene Acat3: -0.674 | FC, gene Acly: -0.5062 | FC, gene Adnp2: 0.5468 | FC, gene Aen: 0.6316 | FC, gene Aff4: 0.6064 | FC, gene Ahcy: -0.9648 | FC, gene Akap13: 0.5493 | FC, gene Ankrd17: 0.6698 | FC, gene Ap1s1: -0.5707 | FC, gene Ap3d1: 0.5083 | FC, gene Aplnr: 0.5871 | FC, gene Arhgap23: 0.8043 | FC, gene Asph: -0.5094 | FC, gene Atf1: 0.5582 | FC, gene Bbs4: 0.6922 | FC, gene Bnip1: 0.513 | FC, gene Btn1a1: 0.5761 | FC, gene C2: 2.567 | FC, gene Ccdc115: -0.5047 | FC, gene Ccr7: 0.5204 | FC, gene Cdk4: -0.5201 | FC, gene Chd8: 1.187 | FC, gene Chpt1: -0.6745 | FC, gene Ciao2a: -0.5045 | FC, gene Clcn7: 0.7305 | FC, gene Cldn10: -0.6712 | FC, gene Clec2j: -0.5841 | FC, gene Cuedc1: -0.5402 | FC, gene Cyp4a32: 0.9236 | FC, gene Cyth4: 0.5449 | FC, gene D8Ertd738e: -0.5566 | FC, gene Dcps: 0.5089 | FC, gene Ddx3x: 0.6643 | FC, gene Ddx17: -0.6263 | FC, gene Ddx50: 0.5809 | FC, gene Dnajb1: 1.307 | FC, gene Dnajb4: 0.8217 | FC, gene Dusp6: 0.7087 | FC, gene Dusp8: 0.9914 | FC, gene Edem2: -0.5407 | FC, gene Efcab6: -0.6582 | FC, gene Efhc2: 0.6406 | FC, gene Efl1: 0.5009 | FC, gene Egr2: 1.468 | FC, gene Epb41l2: 0.503 | FC, gene Epb41l4b: -0.6555 | FC, gene Epc1: 0.5651 | FC, gene Erfl: 0.7342 | FC, gene Fam210b: -0.5004 | FC, gene Fbxo34: 0.5562 | FC, gene Fer1l4: 0.5763 | FC, gene Fgfr2: -0.6329 | FC, gene Fnip1: 1.067 | FC, gene Foxa1: -0.5875 | FC, gene Foxo4: -0.5985 | FC, gene Foxp1: 0.7638 | FC, gene Frk: -0.5985 | FC, gene Fscn1: 0.6051 | FC, gene Gadd45gip1: -0.6021 | FC, gene Galnt16: 0.5879 | FC, gene Gcdh: -0.6082 | FC, gene Get3: -0.5368 | FC, gene Gm6760: -0.5229 | FC, gene Gm19935: 0.6161 | FC, gene Gm36327: 0.5888 | FC, gene Gpr108: -0.6108 | FC, gene Grcc10: -0.632 | FC, gene Gstm5: -0.5595 | FC, gene Hbs1l: 0.5826 | FC, gene Hcfc2: 0.539 | FC, gene Hddc3: -0.6233 | FC, gene Hes1: 0.7365 | FC, gene Hes7: 0.6772 | FC, gene Hnrnph3: 0.5781 | FC, gene Hspa1a: 3.192 | FC, gene Hspb8: 0.5876 | FC, gene Ints1: -0.5112 | FC, gene Ints6: 0.5796 | FC, gene Irgm2: 0.8053 | FC, gene Itm2c: -0.5859 | FC, gene Josd2: -0.5145 | FC, gene Kcnb2: 0.5599 | FC, gene Kdm2b: 0.8792 | FC, gene Klf2: 0.591 | FC, gene Klf6: 1.611 | FC, gene Krcc1: -0.5435 | FC, gene Ldhb: 0.9545 | FC, gene Lrch4: 0.6982 | FC, gene Mat2b: -0.5576 | FC, gene Mcl1: 0.7457 | FC, gene Mff: -0.5195 | FC, gene Mpnd: -0.5935 | FC, gene Mrgprb13: 0.5244 | FC, gene Mrpl18: -0.5015 | FC, gene Msantd1: 0.7207 | FC, gene Myo6: -0.795 | FC, gene Myoz2: -0.6449 | FC, gene Ndufc2: -0.5355 | FC, gene Nfat5: 0.6106 | FC, gene Nfyc: 0.5405 | FC, gene Nlrp9c: 0.6509 | FC, gene Nr1d1: 0.7307 | FC, gene Nr6a1: 0.5193 | FC, gene Nrg1: 1.2298 | FC, gene ORF1ab_REV: 1.502 | FC, gene Olfr229: 0.6277 | FC, gene Olfr648: 0.5798 | FC, gene Olfr992: 0.5742 | FC, gene Olfr1246: 0.5289 | FC, gene Oser1: 0.5067 | FC, gene Papss2: 0.7496 | FC, gene Parp4: 0.5117 | FC, gene Paxx: 0.5674 | FC, gene Pcdh10: 0.5344 | FC, gene Pcf11: 0.7986 | FC, gene Pga5: 0.5011 | FC, gene Pias3: -0.5192 | FC, gene Pigb: 0.6695 | FC, gene Pllp: -0.5323 | FC, gene Ppargc1a: 2.4524 | FC, gene Ppil3: 0.791 | FC, gene Ppp1r10: 1.995 | FC, gene Ppp2r1a: -0.5051 | FC, gene Prpsap1: -0.5066 | FC, gene Ptprf: -0.5908 | FC, gene Pum1: 0.5225 | FC, gene Rac3: -0.6773 | FC, gene Ranbp3: 0.6534 | FC, gene Rapgef6: 0.5765 | FC, gene Rasgrp2: 0.6502 | FC, gene Rbm39: 0.6181 | FC, gene Rel: 0.5472 | FC, gene Rnd1: 2.009 | FC, gene Rora: 0.5709 | FC, gene Rps6ka4: -0.6146 | FC, gene Rsad1: 0.5304 | FC, gene Rtf2: 0.5373 | FC, gene Rusf1: -0.6909 | FC, gene S: 7.077 | FC, gene Samd11: 0.6285 | FC, gene Sdf4: 0.5035 | FC, gene Sema4f: 1.3449 | FC, gene Serhl: 1.282 | FC, gene Serpinb9f: 0.5421 | FC, gene Serpinf1: 0.5919 | FC, gene Sfpq: 0.8832 | FC, gene Sftpd: -0.8403 | FC, gene Skil: 0.9649 | FC, gene Slc8a2: 0.6877 | FC, gene Slc25a1: -0.8686 | FC, gene Slc25a45: 1.7301 | FC, gene Snrnp70: -0.5232 | FC, gene Socs2: 1.6268 | FC, gene Sqle: -0.5283 | FC, gene St7: 0.6724 | FC, gene Stc1: -0.7739 | FC, gene Sult1a1: -0.5479 | FC, gene Tcp11l2: -0.5998 | FC, gene Tecr: -0.5713 | FC, gene Tmbim6: -0.5766 | FC, gene Tmem35b: 1.27 | FC, gene Tnfrsf12a: 0.714 | FC, gene Tpgs1: -0.5572 | FC, gene Tra2b: 1.01 | FC, gene Tspan12: -0.8782 | FC, gene Ttll8: -0.5897 | FC, gene Twist1: 0.5929 | FC, gene Urah: -0.7905 | FC, gene Vpreb1: 0.5028 | FC, gene Vtcn1: -0.6235 | FC, gene Xpo4: 0.7242 | FC, gene Ybey: 0.5779 | FC, gene Ypel3: -0.854 | FC, gene Zbtb10: 0.9542 | FC, gene Zdhhc18: 0.5354 | FC, gene Zfp68: 0.8041 | NEC, Autophagy: -1.884 | NEC, Biological oxidations: -2.307 | NEC, COPI-mediated anterograde transport: -2.085 | NEC, Cilium Assembly: -1.905 | NEC, ER to Golgi Anterograde Transport: -1.892 | NEC, Macroautophagy: -1.884 | NEC, Organelle biogenesis and maintenance: -2.083 | NEC, The citric acid (TCA) cycle and respiratory electron transport: -2.083 | expression of SARS-CoV-2 ORF1ab: significantly reduced | top 20 genes in the TLR4 pathway: downregulated | viral ORF1ab and S genes in alveoli: significantly downregulated
